# Reference: patent US4656166A, “Antibiotic compounds derived from cephalosporins, process for their production and pharmaceutical compositions” (Sanofi, priority 1983, dated 1987)
# Tests used:
# Type in all cases: cell-based
# Klebsiella RO 30 = test: MIC, in vitro dilution method, Klebsiella RO 30 (Table III); conditions: RO30; Klebsiella RO 30; dilution method; read-out: MIC
# From the text: (§1) The products of the invention have been studied as regards their pharmacological properties and, more especially, bacteriostatic action. This has been determined in vitro by the dilution method, and the study was on Gram negative strains.
# (§2) Results, expressed in minimum inhibiting concentrations (MIC-- μg/ml), are collected in the following table (Table III).
# Serratia RL 72 = test: MIC, in vitro dilution method, Serratia RL 72 (Table III); conditions: RL72
# From the text: as §1, §2
# Escherichia coli SOL 90 = test: MIC, in vitro dilution method, Escherichia coli SOL 90 (Table III); conditions: SOL90; Escherichia coli SOL 90; dilution method; read-out: MIC
# From the text: as §1, §2
# Citrobacter RL 49 = test: MIC, in vitro dilution method, Citrobacter RL 49 (Table III); conditions: RL49; Citrobacter RL 49; dilution method; read-out: MIC
# From the text: as §1, §2
# Pseudomonas RL 112 = test: MIC, in vitro dilution method, Pseudomonas RL 112 (Table III); conditions: RL112
# From the text: as §1, §2
# [1] = test system: Proteus vulgaris RL 99 bis; test: MIC, in vitro dilution method, Proteus vulgaris RL 99 bis (Table III); conditions: RL99BIS; Proteus vulgaris RL 99 bis; dilution method; read-out: MIC
# From the text: as §1, §2
# Enterobacter RO 154 = test: MIC, in vitro dilution method, Enterobacter RO 154 (Table III); conditions: RO154; Enterobacter RO 154; dilution method; read-out: MIC
# From the text: as §1, §2
Structure (SMILES),MIC (Klebsiella RO 30) [mg/L],MIC (Serratia RL 72) [mg/L],MIC (Escherichia coli SOL 90) [mg/L],MIC (Citrobacter RL 49) [mg/L],MIC (Pseudomonas RL 112) [mg/L],MIC [1] [mg/L],MIC (Enterobacter RO 154) [mg/L]
CNCc1ccc(C(=O)SCC2=C(C(=O)O)N3C(=O)C(NC(=O)C(=NOC4(C(=O)O)CCC4)c4csc(N)n4)C3[S+]([O-])C2)cc1 (centres unmarked) [compound 42534],0.25,1,0.5,0.25,8,≤ 0.125,0.5
CC(C)[C@H](N)C(=O)OCC1=C(C(=O)O)N2C(=O)C(NC(=O)/C(=N\OC(C)(C)C(=O)O)c3csc(N)n3)C2[S+]([O-])C1 (some centres unmarked) [41 806],0.5,4,1,1,8,0.5,8
Cc1ccc(C(=O)OCC2=C(C(=O)O)N3C(=O)C(NC(=O)/C(=N\OC(C)(C)C(=O)O)c4csc(N)n4)C3[S+]([O-])C2)cc1CN (centres unmarked) [42 379],≤ 0.125,0.5,0.25,≤ 0.125,8,≤ 0.125,≤ 0.125
CNCc1cccc(C(=O)OCC2=C(C(=O)O)N3C(=O)C(NC(=O)/C(=N\OC(C)(C)C(=O)O)c4csc(N)n4)C3[S+]([O-])C2)c1 (centres unmarked) [42 537],0.25,0.5,0.25,0.25,8,≤ 0.125,0.25
CCNCc1cccc(C(=O)OCC2=C(C(=O)O)N3C(=O)C(NC(=O)/C(=N\OC(C)(C)C(=O)O)c4csc(N)n4)C3[S+]([O-])C2)c1 (centres unmarked) [42 538],0.25,0.5,0.5,0.25,8,≤ 0.125,0.25
CC(C)C[C@H](N)C(=O)OCC1=C(C(=O)O)N2C(=O)C(NC(=O)/C(=N\OC(C)(C)C(=O)O)c3csc(N)n3)C2[S+]([O-])C1 (some centres unmarked) [41 859],0.5,4,1,2,16,0.25,8
CC(CN)C(=O)OCC1=C(C(=O)O)N2C(=O)C(NC(=O)C(=NOC(C)(C)C(=O)O)c3csc(N)n3)C2[S+]([O-])C1 (centres unmarked) [42 025],0.5,1,0.5,0.5,4,0.25,4
Cc1cc(C(=O)OCC2=C(C(=O)O)N3C(=O)C(NC(=O)/C(=N\OC4(C(=O)O)CCC4)c4csc(N)n4)C3[S+]([O-])C2)ccc1CN (centres unmarked) [42 463],≤ 0.125,0.5,≤ 0.125,≤ 0.125,4,≤ 0.125,≤ 0.125
CC(O/N=C(\C(=O)NC1C(=O)N2C(C(=O)O)=C(COC(=O)CCCCN)C[S+]([O-])C12)c1csc(N)n1)C(=O)O (centres unmarked) [42 214],≤ 0.12,0.5,≤ 0.12,≤ 0.12,16,≤ 0.12,≤ 0.12
CC(C)(ON=C(C(=O)NC1C(=O)N2C(C(=O)O)=C(COC(=O)C3CCCCC3CN)C[S+]([O-])C12)c1csc(N)n1)C(=O)O (centres unmarked) [42 321],0.5,1,0.5,0.5,8,≤ 0.125,0.25
Cc1cc(C)c(C(=O)OCC2=C(C(=O)O)N3C(=O)C(NC(=O)C(=NOC4(C(=O)O)CCC4)c4csc(N)n4)C3[S+]([O-])C2)c(C)c1CN (centres unmarked) [42 542],≤ 0.25,0.5,0.5,0.5,8,≤ 0.125,0.5
CC(O)C(N)C(=O)OCC1=C(C(=O)O)N2C(=O)C(NC(=O)C(=NOC(C)(C)C(=O)O)c3csc(N)n3)C2[S+]([O-])C1 (centres unmarked) [41 885],0.5,4,1,4,8,0.5,8
NCc1cccc(C(=O)SCC2=C(C(=O)O)N3C(=O)C(NC(=O)C(=NOC4(C(=O)O)CCC4)c4csc(N)n4)C3[S+]([O-])C2)c1 (centres unmarked) [compound 42532],0.25,1,0.5,0.25,8,≤ 0.125,0.5
CC(ON=C(C(=O)NC1C(=O)N2C(C(=O)O)=C(CSC(=O)c3ccc(CN)cc3)C[S+]([O-])C12)c1csc(N)n1)C(=O)O (centres unmarked) [compound 42221],≤ 0.12,2,0.25,≤ 0.12,64,≤ 0.12,0.25
Cc1c(CN)cccc1C(=O)OCC1=C(C(=O)O)N2C(=O)C(NC(=O)C(=NOC3(C(=O)O)CCC3)c3csc(N)n3)C2[S+]([O-])C1 (centres unmarked) [42 540],≤ 0.125,0.25,0.25,0.125,4,≤ 0.125,≤ 0.125
CC(O/N=C(\C(=O)NC1C(=O)N2C(C(=O)O)=C(COC(=O)C3CCNCC3)C[S+]([O-])C12)c1csc(N)n1)C(=O)O (centres unmarked) [42 215],≤ 0.12,0.25,≤ 0.12,≤ 0.12,8,≤ 0.12,≤ 0.12
CC(O/N=C(\C(=O)NC1C(=O)N2C(C(=O)O)=C(COC(=O)[C@H]3CC[C@H](CN)CC3)C[S+]([O-])C12)c1csc(N)n1)C(=O)O (some centres unmarked) [42 217],≤ 0.12,0.25,≤ 0.12,≤ 0.12,16,≤ 0.12,≤ 0.12
CC(C)(O/N=C(\C(=O)NC1C(=O)N2C(C(=O)O)=C(COC(=O)c3cccc(NC(=O)CCN)c3)C[S+]([O-])C12)c1csc(N)n1)C(=O)O (centres unmarked) [42 465],0.5,2,≤ 0.125,≤ 0.125,8,≤ 0.125,0.5
NCc1ccc(C(=O)SCC2=C(C(=O)O)N3C(=O)C(NC(=O)C(=NOC4(C(=O)O)CCC4)c4csc(N)n4)C3[S+]([O-])C2)cc1 (centres unmarked) [compound 42222],0.5,1,0.5,≤ 0.12,8,≤ 0.12,0.5
Nc1nc(/C(=N/OC2(C(=O)O)CCC2)C(=O)NC2C(=O)N3C(C(=O)O)=C(COC(=O)CC4CCCNC4)C[S+]([O-])C23)cs1 (centres unmarked) [42 472],≤ 0.125,0.25,0.25,≤ 0.125,4,≤ 0.125,≤ 0.125
CCNCc1ccc(C(=O)OCC2=C(C(=O)O)N3C(=O)C(NC(=O)/C(=N\OC(C)(C)C(=O)O)c4csc(N)n4)C3[S+]([O-])C2)cc1 (centres unmarked) [42 396],≤ 0.125,1,≤ 0.125,≤ 0.125,8,≤ 0.125,≤ 0.125
CC(O/N=C(\C(=O)NC1C(=O)N2C(C(=O)O)=C(COC(=O)c3ccc(CN)cc3)C[S+]([O-])C12)c1csc(N)n1)C(=O)O (centres unmarked) [42 216],≤ 0.12,0.5,≤ 0.12,≤ 0.12,8,≤ 0.12,≤ 0.12
Cc1cc(C(=O)OCC2=C(C(=O)O)N3C(=O)C(NC(=O)/C(=N\OC(C)(C)C(=O)O)c4csc(N)n4)C3[S+]([O-])C2)ccc1CN (centres unmarked) [42 380],≤ 0.125,1,≤ 0.125,≤ 0.125,4,≤ 0.125,≤ 0.125
Cc1c(CN)cccc1C(=O)SCC1=C(C(=O)O)N2C(=O)C(NC(=O)C(=NOC3(C(=O)O)CCC3)c3csc(N)n3)C2[S+]([O-])C1 (centres unmarked) [compound 42536],0.25,0.5,0.5,0.25,8,≤ 0.125,0.5
Nc1nc(/C(=N/OC2(C(=O)O)CCC2)C(=O)NC2C(=O)N3C(C(=O)O)=C(COC(=O)CC4CCNCC4)C[S+]([O-])C23)cs1 (centres unmarked) [42 473],≤ 0.125,0.25,0.25,≤ 0.125,4,≤ 0.125,≤ 0.125
CC(C)(O/N=C(\C(=O)NC1C(=O)N2C(C(=O)O)=C(COC(=O)c3cccc(NC(=O)CN)c3)C[S+]([O-])C12)c1csc(N)n1)C(=O)O (centres unmarked) [42 374],0.25,1,0.5,0.25,4,≤ 0.125,0.25
C[C@@H](N)C(=O)OCC1=C(C(=O)O)N2C(=O)C(NC(=O)/C(=N\OC(C)(C)C(=O)O)c3csc(N)n3)C2[S+]([O-])C1 (some centres unmarked) [41 891],0.5,4,0.5,0.5,8,0.5,8
CC(C)(CN)C(=O)OCC1=C(C(=O)O)N2C(=O)C(NC(=O)/C(=N\OC3(C(=O)O)CCC3)c3csc(N)n3)C2[S+]([O-])C1 (centres unmarked) [42 208],0.5,1,0.5,0.5,4,≤ 0.12,0.25
CC(C)(O/N=C(\C(=O)NC1C(=O)N2C(C(=O)O)=C(COC(=O)C3(N)CCCCC3)C[S+]([O-])C12)c1csc(N)n1)C(=O)O (centres unmarked) [41 976],0.5,8,1,0.5,8,0.25,8
